Laboratory results as given in patent US11633397B2, “Use of modulators of CCR5 in the treatment of cancer and cancer metastasis” (priority 2012, dated 2023).
Read-outs that look alike come from different tables or passages of the source.

How the values were obtained:
CCR5 = CCR5 (Homo sapiens, UniProt P51681); experiment: CCL5-induced calcium signaling (Fluo-4-AM intracellular calcium assay) in MDA-MB-231 cells; type: cell-based; details: antagonist 100 nmol/L for 30 minutes before addition of CCL5
Sequence of CCR5 (P51681 whole entry): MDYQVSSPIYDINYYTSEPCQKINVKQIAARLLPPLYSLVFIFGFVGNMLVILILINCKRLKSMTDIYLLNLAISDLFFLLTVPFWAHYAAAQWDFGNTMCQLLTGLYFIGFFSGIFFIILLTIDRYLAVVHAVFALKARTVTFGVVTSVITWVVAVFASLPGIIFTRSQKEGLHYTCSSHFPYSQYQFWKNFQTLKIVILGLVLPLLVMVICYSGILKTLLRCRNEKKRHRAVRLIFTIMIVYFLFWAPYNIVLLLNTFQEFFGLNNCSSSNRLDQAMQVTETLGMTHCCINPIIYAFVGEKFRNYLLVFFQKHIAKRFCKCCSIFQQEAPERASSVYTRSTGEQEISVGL
Description: Micrographs illustrate the axis (x-x′) of the pseudoline scan plot. Those axes were used to construct the adjacent intensity versus time plots. […] The data in FIGS. 3B and 3D are mean±SEM of 3 to 4 independent experiments. Statistical analysis was conducted using the Student t test.
Calcium responses induced either by CCL5 or FBS in human cancer cell lines were monitored under fluorescence confocal microscope as previously reported (28). Briefly, breast cancer cells were seeded in 4-well labtek chambers (Nunc) at 10^4 cells/cm^2 and incubated for 1 day. After 12-hour starvation, cells were labeled by incubating them with […] Fluo-4-AM (Molecular Probes) in HBSS for 30 minutes, washed twice, and incubated for additional 30 minutes before imaging under the microscope. Time-lapse images were collected using a Zeiss LSM 510 Meta inverted confocal microscope with the incubator at 37° C. Relative intracellular Ca^2+ concentration was determined by the changes in fluorescent intensity (FI) of Fluo-4-AM upon the addition of CCL5 (60 ng/mL) or FBS (5%) and was calculated as (FIt−FI0)/FI0.
The importance of CCR5 in HIV infection led to the development of different drugs that target this receptor.

[1] = system: Hs578T breast cancer cells; experiment: FBS-induced 3D invasion into collagen gels, Hs578T; type: cell-based, human; details: 100 nmol/L, 5% FBS as chemoattractant
Description: (§1) In FIG. 4A, there is shown 3D reconstruction of FBS-induced invasion into collagen gels by Hs578T breast cancer cells in presence of CCR5 antagonists (100 nmol/L). In FIG. 3C there is shown 3D reconstruction of FBS-induced invasion into collagen gels by SUM-159 breast cancer cells in presence of CCR5 antagonists (100 nmol/L).
(§2) The 3-dimensional invasion assay was conducted as previously reported (12). Briefly, 100 μL of 1.67 mg/mL Rat Tail collagen type I (BD Biosciences) was pipetted into the top chamber of a 24-well 8-μm pore Transwell (Corning). The Transwell was incubated at 37° C. overnight to allow the collagen to solidify. A total of 30,000 cells were then seeded on the bottom of the Transwell membrane and allowed to attach. Serum-free growth medium was placed into the bottom chamber, whereas 15 ng/mL CCL5 or 5% FBS was used as a chemoattractant in the medium of the upper chamber. The cells were then chemoattracted across the filter through the collagen above for 3 days. Cells were fixed in 4% formaldehyde, permeabilized with 0.2% Triton-X in PBS, and then stained with 40 μg/mL propidium iodide (PI) for 2 hours. Fluorescence was analyzed by confocal z-sections (one section every 20 μm) at ×10 magnification from the bottom of the filter using a Zeiss LSM 510 Meta inverted confocal microscope at the Kimmel Cancer Center Bioimaging Facility. […]

[2] = system: SUM-159 breast cancer cells; experiment: FBS-induced 3D invasion into collagen gels, SUM-159; type: cell-based, human; details: SUM-159 cells; 100 nmol/L; 5% FBS as chemoattractant
Description: as §1, §2

MDA-MB-231 cells = experiment: MTT cell viability assay; type: cell-based, human; details: increasing concentrations, 48 hours
Text: In FIG. 6A, there is shown the effect of CCR5 antagonist on breast cancer cell viability. […] Graph is from a representative experiment carried out by sextuplicate. No statistical differences were found (ANOVA) in 3 independent experiments. In FIG. 6B, there is shown CCR5 expression in MDA-MB-231 cells stably transfected with pcDNA3.1+/Zeo+ (MDA.Vector) or human CCR5 cloned into pCDNA3+Zeo+ (MDA.CCR5). […] Representative experiment from 2 carried out by sextuplicate. […] Thus, the reduction in tumor mass in the lungs is due to the inhibition of “homing” or spread of tumors to the lung. […] Cells expressing eGFP were counted in 3 random fields of 2 different histologic sections (separated 700 μm from each other) per mouse (n=5 mice per group). Statistical analysis was conducted using Student t test. Bar in micrographs, 100 μm.
The MTT assay is a colorimetric assay for measuring the activity of cellular enzymes that reduce the tetrazolium dye, 3-(4,5-Dimethylthiazol-2-yl)-2,5-diphenyltetrazolium bromide, a yellow tetrazole (MTT), to its insoluble formazan, giving a purple color. […]
The effects of CCR5 antagonists on cell viability and proliferation rate were estimated using the soluble tetrazolium salt MTT assay (29). […] Then, the reduced (insoluble and colored) formazan was dissolved in DMSO and measured spectrophotometrically at 570 nm. […]

[3] = system: MDA-MB-231 cells (MDA.pFULG) pulmonary metastases; experiment: Experimental lung metastasis assay (tail vein injection of MDA.pFULG cells, BLI, histology); type: in vivo, NOD/SCID mice
Description: In FIG. 5A, MDA-MB-231 cells transduced with Luc2-eGFP fusion protein were injected into the tail vein of NOD/SCID mice and the in vivo bioluminescent signal was quantified weekly. […] Tumor area was quantified with the Nikon Elements BR 3.0 software analyzing at low magnification (×40) 2 random fields of 2 different histologic sections (separated 600 μm from each other) per mouse. Statistical analysis was conducted using the Student t test with Welch correction for heterogeneous variances (n=33 and 12 for control and treated groups, respectively).
MB-MDA-231 cells expressing Luc2-eGFP (called MDA.pFLUG for the rest of the article) were detached with a nonenzymatic cell dissociation buffer (4 mmol/L EDTA in Ca^2+ and Mg^2+-free PBS), resuspended in Dulbecco's PBS without Ca^2+ and Mg^2+ and immediately injected into the tail vein of 8-week-old, female nonobese diabetic/severe combined immunodeficient (NOD/SCID) mice (NCI, Bethesda Md.). Each mouse received 10^6 cells. […] Treatment was started immediately after injection or 10 days later for the experiments analyzing the proliferation of established metastasis. For in vivo bioluminescence imaging (BLI), mice were given an intraperitoneal (i.p.) injection with 200 μL of d-luciferin (30 mg/mL). Mice were anesthetized with isoflurane (2% in 1 L/min oxygen), and bioluminescence images were acquired 10 to 15 minutes after d-luciferin injection using the IVIS XR system (Caliper Life Sciences). Acquisition times ranged from 10 seconds (for later time points) to 5 minutes (for early time points). Data are expressed as total photon flux and were analyzed using Living Image 3.0 software (Caliper Life Sciences). For ex vivo BLI, d-luciferin was diluted in PBS to a final concentration of 300 μg/mL and used to soak freshly isolated lungs for 2 to 3 minutes before imaging. Some lungs were stained with India ink, as previously reported (33), or processed and stained with hematoxylin and eosin to corroborate the presence of pulmonary tumors. For homing assays, mice were euthanized 24 hours after the intravenous injection of MDA.pFULG cells. Lungs were perfused with PBS, fixed with freshly prepared formaldehyde (4% in PBS), and frozen in optimum cutting temperature (Sakura Finetek). Cryosections (10 μm) were counterstained with 4′,6-diamidino-2-phenylindole analyzed by confocal microscopy. Animal experiments were approved by the Thomas Jefferson University's Institutional Animal Care and Use Committee.
MDA-MB-231 cells transduced within the Luc2-eGFP lentiviral vector (MDA.pFULG cells) were used in an experimental metastasis model. The Luc2 gene is a codon-optimized version of Luc and cells expressing this reporter were 10 to 100 times brighter than the unmodified Luc gene (30). […]

[4] = system: MDA-MB-231 cells (MDA.pFULG) established pulmonary metastasis; experiment: Growth of established pulmonary metastasis (treatment started 10 days after cell injection); type: in vivo, NOD/SCID mice; details: 8 mg/kg every 12 hours; treatment initiated 10 days after injection of cells
Text: (§3) In FIG. 6A, there is shown the effect of CCR5 antagonist on breast cancer cell viability. […] Graph is from a representative experiment carried out by sextuplicate. No statistical differences were found (ANOVA) in 3 independent experiments. In FIG. 6B, there is shown CCR5 expression in MDA-MB-231 cells stably transfected with pcDNA3.1+/Zeo+ (MDA.Vector) or human CCR5 cloned into pCDNA3+Zeo+ (MDA.CCR5). […] Representative experiment from 2 carried out by sextuplicate. […] Thus, the reduction in tumor mass in the lungs is due to the inhibition of “homing” or spread of tumors to the lung. […] Cells expressing eGFP were counted in 3 random fields of 2 different histologic sections (separated 700 μm from each other) per mouse (n=5 mice per group). […]
(§4) MB-MDA-231 cells expressing Luc2-eGFP (called MDA.pFLUG for the rest of the article) were detached with a nonenzymatic cell dissociation buffer (4 mmol/L EDTA in Ca^2+ and Mg^2+-free PBS), resuspended in Dulbecco's PBS without Ca^2+ and Mg^2+ and immediately injected into the tail vein of 8-week-old, female nonobese diabetic/severe combined immunodeficient (NOD/SCID) mice (NCI, Bethesda Md.). […] Data are expressed as total photon flux and were analyzed using Living Image 3.0 software (Caliper Life Sciences). […] Cryosections (10 μm) were counterstained with 4′,6-diamidino-2-phenylindole analyzed by confocal microscopy. […]

MDA.pFULG cells = experiment: Homing assay: lung colonization 24 hours after injection of MDA.pFULG cells; type: in vivo, mice; details: 10 administrations (twice a day for 5 days) before i.v. injection of cells; lungs 24 hours after injection
Text: as §3, §4

[5] = humans; oral dose of 300 mg; cited from earlier work
[6] = mice; 16 mg/kg; cited from earlier work
[7] = 8 mg/kg twice daily, oral gavage

| inhibition of CCL5-induced calcium responses (CCR5) [%] | Structure (SMILES) | FBS-induced breast cancer cell invasion [1] | FBS-induced breast cancer cell invasion [2] | cell viability (MTT reduction) (MDA-MB-231 cells) | fraction of treated mice with detectable metastatic tumors [3, 7] [%] | reduction of mean size of metastatic tumors (lung histology) [3, 7] [%] | number and size of pulmonary metastases compared with vehicle-treated mice ([3]; 8 mg/kg twice daily, oral gavage, weekly BLI for 5 weeks) | pulmonary tumor burden ([3]; 16 mg/kg/d divided into 2 doses) | tumor growth of established pulmonary metastasis (in vivo BLI) [4] | reduction of the number of eGFP cells in the lungs (MDA.pFULG cells) [%] | Cmax [5] [nM] | Cmax [6] [nM] |
| --- | --- | --- | --- | --- | --- | --- | --- | --- | --- | --- | --- | --- |
| 65 | Cc1nnc(C(C)C)n1[C@@H]1C[C@H]2CC[C@@H](C1)N2CC[C@H](NC(=O)C1CCC(F)(F)CC1)c1ccccc1 [maraviroc, 4,4-difluoro-N-[(1S)-3-[(1R,5S)-3-(3-methyl-5-propan-2-yl-1,2,4-triazol-4-yl)-8-azabicyclo[3.2.1]octan-8-yl]-1-phenylpropyl]cyclohexane-1-carboxamide] | inhibited FBS-induced breast cancer cell invasion | inhibited FBS-induced breast cancer cell invasion | did not affect the MTT reduction | 50 | 65 | significant reduction | significantly reduced | did not modify tumor growth | 40 | 1200 | 1040 |
| 90 | COC[C@@H](c1ccc(C(F)(F)F)cc1)N1CCN(C2(C)CCN(C(=O)c3c(C)ncnc3C)CC2)C[C@@H]1C [vicriviroc, (4,6-dimethylpyrimidin-5-yl)-[4-[(3S)-4-[(1R)-2-methoxy-1-[4-(trifluoromethyl)phenyl]ethyl]-3-methylpiperazin-1-yl]-4-methylpiperidin-1-yl]methanone] | inhibited FBS-induced breast cancer cell invasion | inhibited FBS-induced breast cancer cell invasion | did not affect the MTT reduction | – | – | – | – | – | – | – | – |
